Reference: US6372727B1, “Metalloporphyrin treatment of neurologic disease” (UAB Research Foundation, priority 1999, dated 2002)
Values joined by “and” are separate entries in the source; they are usually repeats but may differ in a detail not shown here. Identical values can stand only once.

How the values were obtained:
[1] = Peroxynitrite-mediated nitration of GYA peptide; type: biochemical; conditions: 2 mM GYA, 10 μM MP, pH 7.4
Description: Nitration efficiency, defined as the moles of nitrated GYA peptide formed per mole of peroxynitrite added, was determined at a fixed concentration of 10 μM MP or Cu,Zn SOD subunit, or 1 mM CO2 as described below. Increasing amounts of peroxynitrite were added in a sequential manner in order to determine whether nitration efficiency varied with concentration and to determine whether nitration catalysis was maintained with multiple additions (see INSET). Nitration efficiency was calculated for each peroxynitrite addition; the values shown are the average of all nine peroxynitrite additions. Absorbance changes were monitored simultaneously at 380, 430, and 460 nm.
(§1) For nitration of GYA peptide (see FIG. 6), reaction solutions contained 2 mM GYA and 10 μM of the indicated MP in 1.4 ml of 0.1 M potassium phosphate, pH 7.4 at 37° C. Comparisons with two previously characterized nitration catalysts, human Cu,Zn superoxide dismutase (hCu,Zn SOD) and carbon dioxide, were made using 10 μM of SOD subunit and 25 mM potassium bicarbonate, respectively, which was pH-adjusted to 7.4. This level of bicarbonate results in rapid saturation of the solution with carbon dioxide (˜1 mM). Solutions were placed into a rapidly stirred cuvette and nine bolus additions (50 μM×3, 100 μM×3, and 200 μM×3) of peroxynitrite were made sequentially while the absorbance was monitored. Increasing amounts of peroxynitrite were added in a sequential manner in order to determine whether nitration efficiency varied with concentration and to determine whether nitration catalysis was maintained with multiple additions (see FIG. 6 inset). Nitration efficiency was defined as the amount of nitropeptide formed per amount of peroxynitrite added and was calculated for each peroxynitrite addition; the values shown are the average of all nine peroxynitrite additions. The absorbance changes associated with nitrotyrosine peptide production were monitored simultaneously at 380, 430, and 460 nm. The extinction coefficients for nitrated GYA at pH 7.4 are 4,400 M^−1cm^−1 at 430 nm and 2,200 M^−1cm^−1 at both 380 and 460 nm. […] Wavelengths used to quantify nitrotyrosine production were chosen to minimize interference by the particular metalloporphyrin used. Experiments using HPA as a nitration target (FIG. 7) contained 8 mM HPA in either 0.1 M potassium phosphate, pH 7.4 or 0.1 M sodium borate, pH 9.1.
The relative abilities of several MPs to enhance nitration of the tripeptide GYA was compared using 10 μM MP and sequential bolus additions of 50 μM (×3), 100 μM (×3), and 200 μM (×3)peroxynitrite (FIG. 6, inset).

[2] = Ascorbate oxidation by MPs monitored at 266 nm; type: biochemical; conditions: MP 10 μM, 50 μM ascorbate, 0.1 M potassium phosphate pH 7.4, ± standard error, n=3
Description: (§2) In order to test the hypothesis that Mn(II)- or Fe(II)-porphyrins would be capable of carrying out two-electron reductions of peroxynitrite and thereby decreasing rather than increasing its reactivity, attempts were made to pre-reduce these transition metal-containing MPs prior to addition of peroxynitrite.
Table V. Ascorbate oxidation by MPs. MPs (10 μM) were added to stirred cuvettes containing 0.1 M potassium phosphate, pH 7.4 and 50 μM ascorbate. Ascorbate oxidation was monitored at 266 nm (ηm=17,700 M^−1cm^−1). Oxidation rates (±standard errors) were determined by fitting the initial linear portion of each curve and averaging the rates (n=3).

[3] = MP 5 μM, GSH 2 mM, 0.1 M potassium phosphate pH 7.4, 37° C.
Description: Aliquots (14 μl) were removed at 10 min intervals and added to 1.4 of 0.1 M potassium phosphate, pH 7.4 containing 0.2 mM dithionitrobenzoic acid (Ellman's Reagent) and 50 μM EDTA. GSH concentration was determined by the change in 430 nm absorbance. The extinction coefficient at 430 nm was determined to be 13,900 M^−1cm^−1 using a fresh GSH solution standardized by weight.
as §2

[4] = Oxidation of metalloporphyrins by peroxynitrite, stopped-flow spectroscopy; type: biochemical; conditions: 37° C., 0.1 M potassium phosphate pH 7.4, pseudo-first order, ± standard error
Description: Peroxynitrite (in 10 mM NaOH) was rapidly mixed with the indicated MPs in 0.1 M potassium phosphate, pH 7.4 at 37° C. using a stopped-flow apparatus as described in Methods. […] A final concentration of 40 μM peroxynitrite was added to 8 μM of each of the MPs MnTBAP, MnPPIX, and FePPIX. […] INSET: Apparent rate constants for oxidation of 8 μM MnTBAP are plotted as a function of peroxynitrite concentration to illustrate how the rate constants listed in Table III were determined.
Rates of metal loporphyrin oxidation by peroxynitrite were determined using a Bio Sequential SX-18MV Applied Photophysics stopped-flow spectrofluorometer. Solutions of metalloporphyrins in 0.1 M potassium phosphate buffer, pH 7.4 were placed in one syringe and solutions of peroxynitrite in 10 mM NaOH were placed in a second syringe, both of which were submerged in a water bath at 37° C. Changes in metalloporphyrin absorbance as a function of time were recorded following triggering of syringe firing and solution mixing (instrument dead time=2 msec); a total of 1000 data points were collected over intervals ranging from 50 msec to 3 sec. […] Because the absorbance changes associated with loss of +3 forms were greater, rates of metalloporphyrin oxidation were determined by monitoring the disappearance of Mn(III)TMPyP at 462 nm, Mn(III)TBAP at 468 nm, Mn(III)PPIX at 466 nm, and Fe(III)PPIX at 464 nm. Absorbance changes as a function of time were fitted to the equation describing a first order process. The concentration of peroxynitrite was varied from five-fold to forty-fold greater than the fixed metalloporphyrin concentration in order to obtained pseudo first-order conditions (see Table III). Each concentration was injected 10 times and data were averaged automatically prior to fitting.
Rate constants for stoichiometric metalloporphyrin oxidation by peroxynitrite at 37° C. were determined under pseudo-first order reaction conditions by varying the amount of peroxynitrite added to a fixed concentration of metalloporphyrin (Table III).
In Table III, the rate of peroxynitrite-mediated oxidation of metalloporphyrins at 37° C. was determined. Apparent rate constants were determined by stopped-flow spectroscopy and plotted versus the peroxynitrite concentration (as shown for MnTBAP in FIG. 4 inset) to determine the bimolecular rate constant in M^−1s^−1±standard error. FePPIX was monitored at 387 nm, MnPPIX at 464 nm, and MnTBAP at 470 nm.

[5] = MP-catalyzed peroxynitrite decomposition monitored at 302 nm; type: biochemical; conditions: 100 μM peroxynitrite
Description: Peroxynitrite (100 μM) was added to rapidly stirred cuvettes at 37° C. containing the indicated concentrations of MPs in 0.1 M potassium phosphate, pH 7.4. Ascorbate was added to 150 μM where indicated. Peroxynitrite decomposition was monitored at 302 nm using a Hewlett-Packard diode-array spectrophotometer. Apparent rates (kapparents^−1, average of n=3) were plotted versus MP concentration to determine rate constants in M^−1s^−1.
Reactions contained the indicated concentration of FeTCPPin 1.4 ml of 0.1 M potassium phosphate, pH 7.4 in the absence or presence to 150 μM ascorbic acid. Peroxynitrite (100 μM) was added to rapidly stirred cuvettes at 37° C. and the decay of peroxynitrite was monitored continuously at 302 nm. Decay data were fitted to the equation describing first order decay to obtain apparent decay rates (kapparent sec^−1). Apparent decay rates as a function of FeTCPP were fitted by linear regression and the rate constant was obtained slope of the line.
Peroxynitrite (100 μM) decomposition was determined at 302 nm using a Hewlett-Packard diode-array spectrophotometer fitted with a temperature-controlled cuvette chamber and a water-driven cuvette stirrer. Bolus additions of peroxynitrite were made to vigorously stirred cuvettes containing varying concentrations of MPs (see Table III) while data were collected at a rate of ten points/sec. […] Each reaction was repeated three times and only the first additions of peroxynitrite were averaged. Data were exported for fitting and plotting. Apparent rates of peroxynitrite decomposition were plotted as a function of metalloporphyrin concentration (as shown in FIG. 5) to determine concentration-independent rate constants at 37° C.
Rates of peroxynitrite (100 μM) decomposition were determined at different MP concentrations. Ascorbate was added to 150 μM where indicated. […] Apparent rate constants were plotted versus MP concentration (as in FIG. 5A,B) to determine true rate constants in M^−1s^−1±standard error.

[6] = MP-catalyzed nitration of HPA: effect of pH, reductants and serum; type: biochemical; conditions: for enhancement of nitration yield at pH 9.1 / effect of ascorbate on nitration enhancement: 8 mM HPA, 10 μM MP; for enhancement of nitration yield at pH 9.1: 0.1 M sodium borate pH 9.1, versus non-catalyzed; for effect of ascorbate and GSH on nitration enhancement: concentrations which eliminated non-catalyzed nitration; for effect of serum on nitration enhancement: fresh human serum 1:10 added prior to peroxynitrite; for effect of ascorbate on nitration enhancement: ascorbate 150 μM, pH 7.4
Description: Single additions of 100 μM peroxynitrite were made to reactions containing ascorbate or GSH. Three sequential additions of 100 μM peroxynitrite were made to all other reactions.
as §1, with “This” for “For nitration of GYA peptide (see FIG. 6), reaction solutions contained 2 mM GYA and 10 μM of the indicated MP in 1.4 ml of 0.1 M potassium phosphate, pH 7.4 at 37° C. Comparisons with two previously characterized nitration catalysts, human Cu,Zn superoxide dismutase (hCu,Zn SOD) and carbon dioxide, were made using 10 μM of SOD subunit and 25 mM potassium bicarbonate, respectively, which was pH-adjusted to 7.4. This”

Structure (SMILES)	effect on nitration [1]	Rate of Ascorbate Oxidation [2] [µM/min]	rate of GSH oxidation [3] [µM/min]	Rate Constants for Oxidation of MPs by Peroxynitrite [4] [M⁻¹ s⁻¹]	Rate Constants for MP-Catalyzed Decomposition of Peroxynitrite (pH 7.4, 37° C.) ([5]; absence of added reductants)	enhancement of nitration yield at pH 9.1 [6]	effect of ascorbate and GSH on nitration enhancement [6]	effect of serum on nitration enhancement [6]	effect of HOCl on the MP (50 μM HOCl)	oxidation by H2O2 (0.5 mM H2O2, 20 min)	ascorbate concentration giving complete inhibition of nitration enhancement ([6]; dose-dependent, not shown) [mM]	effect of ascorbate on nitration enhancement [6]	Rate Constants for MP-Catalyzed Decomposition of Peroxynitrite (pH 7.4, 37° C.) ([5]; plus ascorbate 150 μM)
C[n+]1ccc(-c2c3nc(c(-c4cc[n+](C)cc4)c4ccc([n-]4)c(-c4cc[n+](C)cc4)c4nc(c(-c5cc[n+](C)cc5)c5ccc2[n-]5)C=C4)C=C3)cc1.Cc1ccc(S(=O)(=O)[O-])cc1.Cc1ccc(S(=O)(=O)[O-])cc1.Cc1ccc(S(=O)(=O)[O-])cc1.Cc1ccc(S(=O)(=O)[O-])cc1.[Cu+2] [CuTMPyP, Copper (II) meso-tetra-(N-methyl-4-pyridyl)-porphine tetra tosylate]	small but reproducible inhibitory effect	6.50 ± 0.32	29	–	–	–	–	–	–	–	–	–	–
C=CC1=C(C)c2cc3[n-]c(cc4nc(cc5[n-]c(cc1n2)c(C)c5CCC(=O)O)C(CCC(=O)O)=C4C)c(C)c3C=C.[Fe] [FePPIX, Iron (III) protoporphyrin IX dichloride]	–	1.33 ± 0.07	–	1e+06	3.7×10^5 M^−1s^−1 and 3.7 × 10^5 ± 0.2 M^−1s^−1	5.7 fold	much less inhibitory effect	largely eliminated the nitration enhancement	–	–	–	–	–
C[n+]1ccc(-c2c3nc(c(-c4cc[n+](C)cc4)c4ccc([n-]4)c(-c4cc[n+](C)cc4)c4nc(c(-c5cc[n+](C)cc5)c5ccc2[n-]5)C=C4)C=C3)cc1.[Cl-].[Cl-].[Cl-].[Cl-].[Cl-].[Fe+3] [FeTMPyP, Iron (III) meso-tetra-(N-methyl-4-pyridyl)-porphine chloride]	–	146.20 ± 7.2	22	–	7.9 × 10^5 ± 0.9 M^−1s^−1	10.7 fold	much less inhibitory effect	much less effect	appeared to destroy the metal-pyrrole center	did not appear to oxidize	1.5	–	–
C=CC1=C(C)c2cc3[n-]c(cc4[n-]c(cc5nc(cc1n2)C(C)=C5C=C)c(C)c4CCC(=O)[O-])c(CCC(=O)[O-])c3C.[H+].[H+].[Mn+2] [MnPPIX, Manganese (III) protoporphyrin IX dichloride]	–	0.96 ± 0.05	–	99000	–	did not enhance nitration yields	largely prevented the enhancement of nitration	largely eliminated the nitration enhancement	–	–	–	pronounced inhibitory effect	–
O=C(O)c1ccc(-c2c3nc(c(-c4ccc(C(=O)O)cc4)c4ccc([n-]4)c(-c4ccc(C(=O)O)cc4)c4nc(c(-c5ccc(C(=O)O)cc5)c5ccc2[n-]5)C=C4)C=C3)cc1.[Mn+3] [MnTBAP, Manganese (III) tetra-(4-benzoic acid)-porphyrin]	–	–	–	25000	no acceleration	did not enhance nitration yields	largely prevented the enhancement of nitration	largely eliminated the nitration enhancement	–	–	–	pronounced inhibitory effect	3.3 × 10^4 ± 0.4 M^−1s^−1
